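In this assay, cells in 96-well plates receive the compound at five concentrations for 48 hours. Endpoints are linearly interpolated between the surrounding concentrations. GI50: concentration for 50% inhibition of growth. TGI: total growth inhibition.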
How the values were obtained:
Assay in all cases: NCI anticancer screen, dose series, 48 h
NCI-H23 lung = tested on: NCI-H23 lung
NCI-H460 lung = tested on: NCI-H460 lung
NCI-H522 lung = tested on: NCI-H522 lung
NCI/ADR-RES ovarian = tested on: NCI/ADR-RES ovarian
OVCAR-3 ovarian = tested on: OVCAR-3 ovarian
OVCAR-4 ovarian = tested on: OVCAR-4 ovarian
OVCAR-5 ovarian = tested on: OVCAR-5 ovarian
OVCAR-8 ovarian = tested on: OVCAR-8 ovarian
PC-3 prostate = tested on: PC-3 prostate
RPMI-8226 leukemia = tested on: RPMI-8226 leukemia
RXF 393 renal = tested on: RXF 393 renal
SF-268 CNS = tested on: SF-268 CNS
SF-295 CNS = tested on: SF-295 CNS
SF-539 CNS = tested on: SF-539 CNS
SK-MEL-2 melanoma = tested on: SK-MEL-2 melanoma
SK-MEL-28 melanoma = tested on: SK-MEL-28 melanoma
SK-MEL-5 melanoma = tested on: SK-MEL-5 melanoma
SK-OV-3 ovarian = tested on: SK-OV-3 ovarian
SN12C renal = tested on: SN12C renal
SNB-19 CNS = tested on: SNB-19 CNS
SNB-75 CNS = tested on: SNB-75 CNS
SR leukemia = tested on: SR leukemia
SW-620 colon = tested on: SW-620 colon
T-47D breast = tested on: T-47D breast
TK-10 renal = tested on: TK-10 renal
U251 CNS = tested on: U251 CNS
UACC-257 melanoma = tested on: UACC-257 melanoma
UACC-62 melanoma = tested on: UACC-62 melanoma
UO-31 renal = tested on: UO-31 renal

CCOC(=O)CNC(=O)c1ccccc1Nc1ccnc(C(F)(F)F)c1
GI50 (NCI-H23 lung): 31.5 µM
TGI (NCI-H23 lung): > 71.8 µM
GI50 (NCI-H460 lung): 29.8 µM
TGI (NCI-H460 lung): > 68.1 µM
GI50 (NCI-H522 lung): 27.8 µM
TGI (NCI-H522 lung): > 70.5 µM
GI50 (NCI/ADR-RES ovarian): > 71.5 µM
TGI (NCI/ADR-RES ovarian): > 100 µM
GI50 (OVCAR-3 ovarian): 20.2 µM
TGI (OVCAR-3 ovarian): 56.9 µM
GI50 (OVCAR-4 ovarian): 43.7 µM
TGI (OVCAR-4 ovarian): > 100 µM
GI50 (OVCAR-5 ovarian): > 51.1 µM
TGI (OVCAR-5 ovarian): > 100 µM
GI50 (OVCAR-8 ovarian): > 50.8 µM
TGI (OVCAR-8 ovarian): > 82.8 µM
GI50 (PC-3 prostate): 25.4 µM
TGI (PC-3 prostate): > 95.5 µM
GI50 (RPMI-8226 leukemia): 12.7 µM
TGI (RPMI-8226 leukemia): 35.1 µM
GI50 (RXF 393 renal): 31.3 µM
TGI (RXF 393 renal): > 64.4 µM
GI50 (SF-268 CNS): 35.7 µM
TGI (SF-268 CNS): > 71.6 µM
GI50 (SF-295 CNS): 54.4 µM
TGI (SF-295 CNS): > 100 µM
GI50 (SF-539 CNS): 28 µM
TGI (SF-539 CNS): > 100 µM
GI50 (SK-MEL-2 melanoma): 44.6 µM
TGI (SK-MEL-2 melanoma): > 72.4 µM
GI50 (SK-MEL-28 melanoma): 28.1 µM
TGI (SK-MEL-28 melanoma): > 83.3 µM
GI50 (SK-MEL-5 melanoma): 14.8 µM
TGI (SK-MEL-5 melanoma): 40.4 µM
GI50 (SK-OV-3 ovarian): > 59.5 µM
TGI (SK-OV-3 ovarian): > 100 µM
GI50 (SN12C renal): 36.6 µM
TGI (SN12C renal): > 79.4 µM
GI50 (SNB-19 CNS): 34.2 µM
TGI (SNB-19 CNS): > 100 µM
GI50 (SNB-75 CNS): > 100 µM
TGI (SNB-75 CNS): > 100 µM
GI50 (SR leukemia): 19 µM
TGI (SR leukemia): 57.8 µM
GI50 (SW-620 colon): 29.9 µM
TGI (SW-620 colon): > 74.4 µM
GI50 (T-47D breast): 41.9 µM
TGI (T-47D breast): > 100 µM
GI50 (TK-10 renal): 41.6 µM
TGI (TK-10 renal): > 100 µM
GI50 (U251 CNS): 34.3 µM
TGI (U251 CNS): > 62.1 µM
GI50 (UACC-257 melanoma): 68.7 µM
TGI (UACC-257 melanoma): > 100 µM
GI50 (UACC-62 melanoma): 22.4 µM
TGI (UACC-62 melanoma): > 61.2 µM
GI50 (UO-31 renal): 24.4 µM
TGI (UO-31 renal): > 59.5 µM

Reference: PubChem BioAssay (NCI)
